pIC50: −log10 of the molar value. In brackets after ≈: the same amount, converted by molar mass.
Columns and labels:
Pseudomonas aeruginosa [1] = test: Antibacterial activity against Pseudomonas aeruginosa CIP A22 assessed as reduction in bacterial growth by micro-broth dilution method; assay type: functional
Staphylococcus aureus [2] = test: Antibacterial activity against Staphylococcus aureus CIP 54127 assessed as reduction in bacterial growth by micro-broth dilution method; assay type: functional
Zika virus = test: Antiviral activity against Zika virus infected in african green monkey Vero E6 cells assessed as inhibition of cytopathic effect by microscopy based analysis; assay type: functional, organism-based; conditions: Vero C1008
Enterococcus faecalis [3] = test: Ratio of MBC to MIC for Enterococcus faecalis; assay type: functional
[4] = Cytotoxicity against African green monkey Vero A cells; assay type: toxicity, cell-based; conditions: chlorocebus sabaeus
Yellow fever virus = test: Antiviral activity against Yellow fever virus infected in human Huh-7 cells assessed as inhibition of cytopathic effect by microscopy based analysis; assay type: functional, organism-based
Enterococcus faecalis [5] = test: Antibacterial activity against Enterococcus faecalis assessed as reduction in bacterial growth by micro-broth dilution method; assay type: functional
Escherichia coli [6] = test: Bactericidal activity against Escherichia coli CIP 53154; assay type: functional
Staphylococcus aureus [7] = test: Ratio of MBC to MIC for Staphylococcus aureus CIP 54127; assay type: functional
Escherichia coli [8] = test: Ratio of MBC to MIC for Escherichia coli CIP 53154; assay type: functional
Pseudomonas aeruginosa [9] = test: Bactericidal activity against Pseudomonas aeruginosa CIP A22; assay type: functional
Enterovirus A71 = test: Antiviral activity against human EV71 infected in human RD cells assessed as inhibition of cytopathic effect by microscopy based analysis; assay type: functional, organism-based; conditions: Enterovirus A
Enterococcus faecalis [10] = test: Bactericidal activity against Enterococcus faecalis; assay type: functional
Human rhinovirus sp. [11] = test: Antiviral activity against Human rhinovirus A2 infected in human HeLa-RH cells assessed as inhibition of cytopathic effect by microscopy based analysis; assay type: functional, organism-based
Chikungunya virus = test: Antiviral activity against CHIKV infected in African green monkey Vero A cells assessed as inhibition of cytopathic effect by microscopy based analysis; assay type: functional, organism-based
[12] = Cytotoxicity against human Huh-7 cells; assay type: toxicity, cell-based
[13] = Cytotoxicity against human HeLa-RH cells; assay type: toxicity, cell-based
Pseudomonas aeruginosa [14] = test: Ratio of MBC to MIC for Pseudomonas aeruginosa CIP A22; assay type: functional
[15] = Cytotoxicity against human RD cells; assay type: toxicity, cell-based
Human rhinovirus sp. [16] = test: Antiviral activity against Human rhinovirus B14 infected in human HeLa-RH cells assessed as inhibition of cytopathic effect by microscopy based analysis; assay type: functional, organism-based
Staphylococcus aureus [17] = test: Bactericidal activity against Staphylococcus aureus CIP 54127; assay type: functional
[18] = Cytotoxicity against African green monkey Vero E6 cells; assay type: toxicity, cell-based, Vero C1008; conditions: chlorocebus sabaeus
Escherichia coli [19] = test: Antibacterial activity against Escherichia coli CIP 53154 assessed as reduction in bacterial growth by micro-broth dilution method; assay type: functional

SMILES | MIC (Pseudomonas aeruginosa [1]) [µM] | MIC (Staphylococcus aureus [2]) [µM] | pIC50 (Zika virus) | Ratio (Enterococcus faecalis [3]) | CC50 [4] [µM] | pIC50 (Yellow fever virus) | MIC (Enterococcus faecalis [5]) [µM] | MBC (Escherichia coli [6]) [µM] | Ratio (Staphylococcus aureus [7]) | Ratio (Escherichia coli [8]) | MBC (Pseudomonas aeruginosa [9]) [µM] | pIC50 (Enterovirus A71) | MBC (Enterococcus faecalis [10]) [µM] | pIC50 (Human rhinovirus sp. [11]) | pIC50 (Chikungunya virus) | CC50 [12] [µM] | CC50 [13] [µM] | Ratio (Pseudomonas aeruginosa [14]) | MBC (Staphylococcus aureus [17]) [µM] | MIC (Escherichia coli [19]) [µM] | also measured
CCOP(=O)(OCC)C(Nc1ccc(C)cc1)c1cc(Cn2cc(Cn3c(=O)cc(C)c4ccccc43)nn2)ccc1O (centres undefined) | 4160 (≈ 2500 µg/mL) | 520 (≈ 313 µg/mL) | < 4.00 | 1 | > 100 | < 4.00 | 70 (≈ 42.1 µg/mL) | 520 (≈ 313 µg/mL) | 1 | 1 | 4160 (≈ 2500 µg/mL) | < 4.00 | 70 (≈ 42.1 µg/mL) | < 5.43 | < 4.00 | 27.9 | > 100 | 2 | 520 (≈ 313 µg/mL) | 520 (≈ 313 µg/mL) | CC50 [15]: > 100 µM; pIC50 (Human rhinovirus sp. [16]): < 4.00; CC50 [18]: > 100 µM
CCOP(=O)(OCC)C(Nc1ccc(F)cc1)c1cc(Cn2cc(Cn3c(=O)cc(C)c4cc(F)ccc43)nn2)ccc1O (centres undefined) | 8020 (≈ 5000 µg/mL) | 500 (≈ 312 µg/mL) | < 4.00 | 1 | > 100 | < 4.00 | 130 (≈ 81.1 µg/mL) | 1010 (≈ 630 µg/mL) | 1 | 1 | 8020 (≈ 5000 µg/mL) | < 4.00 | 130 (≈ 81.1 µg/mL) | < 5.43 | < 4.00 | 29.3 | > 100 | 2 | 500 (≈ 312 µg/mL) | 1010 (≈ 630 µg/mL) | CC50 [15]: > 100 µM; pIC50 (Human rhinovirus sp. [16]): < 4.00; CC50 [18]: > 100 µM
CO[C@H]1/C=C/O[C@@]2(C)Oc3c(C)c(O)c4c(O)c(c(/C=N/N5CCN(C)CC5)c(O)c4c3C2=O)NC(=O)/C(C)=C\C=C\[C@H](C)[C@H](O)[C@@H](C)[C@@H](O)[C@@H](C)[C@H](OC(C)=O)[C@@H]1C [RIFAMPIN] | 610 (≈ 502 µg/mL) | 80 (≈ 65.8 µg/mL) |  | 1 |  |  | 300 (≈ 247 µg/mL) | 610 (≈ 502 µg/mL) | 1.88 | 2.03 | 610 (≈ 502 µg/mL) |  | 300 (≈ 247 µg/mL) |  |  |  |  | 2.03 | 150 (≈ 123 µg/mL) | 300 (≈ 247 µg/mL) | 
CCOP(=O)(OCC)C(Nc1ccc(C)cc1)c1cc(Cn2cc(Cn3c(=O)cc(C)c4cc(F)ccc43)nn2)ccc1O (centres undefined) | 7350 (≈ 4550 µg/mL) | 240 (≈ 149 µg/mL) | < 4.00 | 1 | > 33.3 | < 4.00 | 60 (≈ 37.2 µg/mL) | 930 (≈ 576 µg/mL) | 1 | 1 | 7350 (≈ 4550 µg/mL) | < 4.00 | 60 (≈ 37.2 µg/mL) | < 4.95 | < 4.00 | > 100 | > 100 | 2 | 240 (≈ 149 µg/mL) | 930 (≈ 576 µg/mL) | CC50 [15]: > 100 µM; pIC50 (Human rhinovirus sp. [16]): < 4.00; CC50 [18]: > 100 µM
CC1(C)S[C@@H]2[C@H](NC(=O)[C@H](N)c3ccccc3)C(=O)N2[C@H]1C(=O)O [AMPICILLIN] | 530 (≈ 185 µg/mL) | 270 (≈ 94.3 µg/mL) |  | 1 |  |  | 260 (≈ 90.8 µg/mL) | 530 (≈ 185 µg/mL) | 1 | 2.04 | 530 (≈ 185 µg/mL) |  | 260 (≈ 90.8 µg/mL) |  |  |  |  | 1.96 | 270 (≈ 94.3 µg/mL) | 260 (≈ 90.8 µg/mL) | 
CCOP(=O)(OCC)C(Nc1ccccc1Cl)c1cc(Cn2cc(Cn3c(=O)cc(C)c4ccccc43)nn2)ccc1O (centres undefined) | 1010 (≈ 628 µg/mL) | 500 (≈ 311 µg/mL) | < 4.00 | 1 | 24.3 | < 4.00 | 60 (≈ 37.3 µg/mL) | 260 (≈ 162 µg/mL) | 1 | 1 | 1010 (≈ 628 µg/mL) | < 4.00 | 60 (≈ 37.3 µg/mL) | < 5.91 | < 4.48 | 30.5 | 52.1 | 1 | 500 (≈ 311 µg/mL) | 260 (≈ 162 µg/mL) | CC50 [15]: > 100 µM; pIC50 (Human rhinovirus sp. [16]): < 4.00; CC50 [18]: > 33.3 µM
CCOP(=O)(OCC)C(Nc1ccccc1OC)c1cc(Cn2cc(Cn3c(=O)cc(C)c4ccccc43)nn2)ccc1O (centres undefined) | 1020 (≈ 630 µg/mL) | 260 (≈ 161 µg/mL) | < 4.00 | 1 | 77.2 | < 4.00 | 2020 (≈ 1250 µg/mL) | 1020 (≈ 630 µg/mL) | 1.92 | 2.04 | 1020 (≈ 630 µg/mL) | < 4.00 | 2020 (≈ 1250 µg/mL) | < 5.91 | < 4.00 | 51.8 | > 33.3 | 1 | 500 (≈ 309 µg/mL) | 500 (≈ 309 µg/mL) | CC50 [15]: > 100 µM; pIC50 (Human rhinovirus sp. [16]): < 4.00; CC50 [18]: > 33.3 µM
